Source: PMC10778626, “Efficacy of Novel Quaternary Ammonium and Phosphonium Salts Differing in Cation Type and Alkyl Chain Length against Antibiotic-Resistant Staphylococcus aureus” (International Journal of Molecular Sciences, 2023)
Read-outs that look alike come from different tables or passages of the source.

Experiments:
[1] = Chromatographic hydrophobicity index (CHI) by UHPLC; assay type: physicochemical; settings: for CHI: LC/UV at pH 2.6, calculated from retention time with the calibration line; for chromatographic logP: back-calculated from CHI at pH 2.6: CHI LogP = 0.047 × CHI + 0.36 × HBC − 1.10
Description: The chromatographic hydrophobicity index (CHI) values were determined using the retention times (tR) of the samples under study and of a mixture of standard compounds on a UHPLC NEXERA SERIES LC-40 with a Luna C18 (2) column of 150 × 4.6 mm, 5 μm (Phenomenex, Torrance, CA, USA). Stock solutions of the test compounds (10 mM) were prepared in dimethyl sulfoxide (DMSO, 99.9%; Carlo Erba) and diluted in acetonitrile/water (1:1) to obtain a final concentration of 500 μM. The mobile phase A was 1.0% (v/v) aqueous acetic acid solution (pH = 2.6), and the mobile phase B was acetonitrile. The following gradient programme was applied: 1–7 min 0–100% B, 7–17 min 100% B, 17–19 min 100–0% B, 1 mL/min flow; rt, injection volume 40 μL.
A calibration line was obtained using a mixture of the following compounds: benzimidazole, theophylline, paracetamol, caffeine, colchicine, carbamazepine, indole, propiophenone, butyrophenone, valerophenone, and heptanophenone (Table S1 and Figure S50, Supplementary Materials). The experimental CHI values of the compounds tested at pH 2.6 were then converted to the logarithm of octanol/water partition coefficient (CHI LogP) values using Equation (1). CHI LogP = 0.047 × CHI + 0.36 × HBC − 1.10 (1) where HBC is the hydrogen bond donor count.

S. aureus CECT 976 = assay: MIC/MBC by broth microdilution, S. aureus CECT 976; assay type: cell-based; settings: Staphylococcus aureus
Description: The minimum inhibitory concentration (MIC) and minimum bactericidal concentration (MBC) values of all QHSs were determined by the broth microdilution method, according to the approved M7-A7 (aerobes) standards of the Clinical and Laboratory Standards Institute (CLSI) guidelines. Overnight cell cultures of S. aureus, in the exponential phase of growth, were adjusted to an optical density (OD) of 0.132 ± 0.02 (λ = 600 nm). Then, a volume of 180 µL of the cell suspension was added to sterile, flat, clear-bottomed polystyrene (PS) 96-well microtiter plates (VWR—Radnor, PA, USA), already containing 20 µL of each QHS under study at concentrations ranging from 0.0625 to 64 µg/mL. In the end, the volume of each compound never exceeded 10% (v/v) of the well volume. Microtiter plates were then incubated for 24 h at 37 °C under agitation (150 rpm; INCU-Line IL 150R incubator). Absorbance measurements were performed at the beginning (t = 0 h) and end (t = 24 h) of the incubation period using a microtiter plate absorbance reader (BMG LABTECH FLUOstar Omega). Bacterial suspensions with DMSO and without QHSs were used as negative controls. […] All tests were performed with six replicates and a minimum of three independent repeats.
Plates were incubated at 37 °C for 24 h, and growth was visually inspected. […] All tests were performed in triplicate, and with a minimum of three independent repeats.

[2] = CECT976, S. aureus CECT 976, broth microdilution, 24 h, 37 °C, read-out: MIC
[3] = CECT976, S. aureus CECT 976, broth microdilution, plated on PCA, read-out: MBC

Structure (SMILES) | CHI [1] | chromatographic logP [1] | MIC (S. aureus CECT 976; [2]) [µg/mL] | MBC (S. aureus CECT 976; [3]) [µg/mL] | MBC (S. aureus CECT 976; CECT976) [µg/mL] | MIC (S. aureus CECT 976; CECT976, 24 h) [µg/mL]
CCCCCC[P+](c1ccccc1)(c1ccccc1)c1ccccc1 [Compound 1a, Hexyltriphenylphosphonium bromide] | 60.58 | 1.75 | 8 | > 64 |  | 
CCCCCCCC[P+](c1ccccc1)(c1ccccc1)c1ccccc1 [Compound 1b, Octyltriphenylphosphonium bromide] | 71.06 | 2.24 | 2 | 16 |  | 
CCCCCCCCCC[P+](c1ccccc1)(c1ccccc1)c1ccccc1 [Compound 1c, Decyltriphenylphosphonium bromide] | 82.58 | 2.78 | 1 | 8 |  | 
CCCCCCCCCCCC[P+](c1ccccc1)(c1ccccc1)c1ccccc1 [Compound 1d, Dodecyltriphenylphosphonium bromide] | 94.50 | 3.34 |  |  | 16 | 1
CCCCCCCCCCCCCCCC[P+](c1ccccc1)(c1ccccc1)c1ccccc1 [Compound 1f, Hexadecyltriphenylphosphonium bromide] | 115.5 | 4.33 | 2 | 16 |  | 
CCCCCCCCCCCCCCCCCC[P+](c1ccccc1)(c1ccccc1)c1ccccc1 [Compound 1g, Octadecyltriphenylphosphonium bromide] | 128.2 | 4.93 | 4 | 64 |  | 
CCCCCC[n+]1ccn(C)c1.[Br-] [Compound 2a, 3-Hexyl-1-methyl-1H-imidazol-3-ium bromide] | 29.35 | 0.279 |  |  | > 64 | > 64
CCCCCCCC[n+]1ccn(C)c1.[Br-] [Compound 2b, 1-Methyl-3-octyl-1H-imidazol-3-ium bromide] | 42.19 | 0.883 | > 64 | > 64 |  | 
CCCCCCCCCC[n+]1ccn(C)c1.[Br-] [Compound 2c, 3-Decyl-1-methyl-1H-imidazol-3-ium bromide] | 54.51 | 1.46 | 16 | > 64 |  | 
CCCCCCCCCCCC[n+]1ccn(C)c1.[Br-] [Compound 2d, 3-Dodecyl-1-methyl-1H-imidazol-3-ium bromide] | 67.25 |  | 1 | 16 |  | 
CCCCCCCCCCCCCCCC[n+]1ccn(C)c1.[Br-] [Compound 2f, 3-Hexadecyl-1-methyl-1H-imidazol-3-ium bromide] | 95.91 | 3.41 | 4 | 8 |  | 
CCCCCCCCCCCCCCCCCC[n+]1ccn(C)c1.[Br-] [Compound 2g, 1-Methyl-3-octadecyl-1H-imidazol-3-ium bromide] | 109.2 | 4.03 | 8 | 16 |  | 
CCCCCC[n+]1ccc2ccccc2c1.[Br-] [Compound 3a, 2-Hexylisoquinolin-2-ium bromide] | 37.81 | 0.677 | > 64 | > 64 |  | 
CCCCCCCC[n+]1ccc2ccccc2c1.[Br-] [Compound 3b, 2-Octylisoquinolin-2-ium bromide] | 50.02 | 1.25 |  |  | > 64 | 64
CCCCCCCCCC[n+]1ccc2ccccc2c1.[Br-] [Compound 3c, 2-Decylisoquinolin-2-ium bromide] | 61.62 | 1.8 | 16 | 64 |  | 
CCCCCCCCCCCC[n+]1ccc2ccccc2c1.[Br-] [Compound 3d, 2-Dodecylisoquinolin-2-ium bromide] | 74.48 | 2.4 | 2 | 16 |  | 
CCCCCCCCCCCCCCCC[n+]1ccc2ccccc2c1.[Br-] [Compound 3f, 2-Hexadecylisoquinolin-2-ium bromide] | 100.8 | 3.64 | 4 | 8 |  | 
CCCCCCCCCCCCCCCCCC[n+]1ccc2ccccc2c1 [Compound 3g] | 113.1 | 4.21 | 8 | 16 |  | 

Structure (SMILES) | CHI [1] | chromatographic logP [1] | MIC (S. aureus CECT 976; [2]) [µg/mL] | MBC (S. aureus CECT 976; [3]) [µg/mL] | MBC (S. aureus CECT 976; CECT976) [µg/mL] | MIC (S. aureus CECT 976; CECT976, 24 h) [µg/mL]
CCCCCC[n+]1ccc(C)cc1.[Br-] [Compound 4a, 1-Hexyl-4-methylpyridin-1-ium bromide] | 31.08 | 0.361 | > 64 | > 64 |  | 
CCCCCCCC[n+]1ccc(C)cc1.[Br-] [Compound 4b, 4-Methyl-1-octylpyridin-1-ium bromide] | 43.90 | 0.963 | > 64 | > 64 |  | 
CCCCCCCCCC[n+]1ccc(C)cc1.[Br-] [Compound 4c, 1-Decyl-4-methylpyridin-1-ium bromide] | 55.99 | 1.53 | 32 | > 64 |  | 
CCCCCCCCCCCC[n+]1ccc(C)cc1.[Br-] [Compound 4d, 1-Dodecyl-4-methylpyridin-1-ium bromide] | 68.96 | 2.14 | 2 | 16 |  | 
CCCCCCCCCCCCCCCC[n+]1ccc(C)cc1.[Br-] [Compound 4f, 1-Hexadecyl-4-methylpyridin-1-ium bromide] | 96.77 | 3.45 | 4 | 8 |  | 
CCCCCCCCCCCCCCCCCC[n+]1ccc(C)cc1.[Br-] [Compound 4g, 4-Methyl-1-octadecylpyridin-1-ium bromide] | 109.2 | 4.03 | 8 | 16 |  | 
CCCCCC[n+]1cccc2ccccc21.[Br-] [Compound 5a, 1-Hexylquinolin-1-ium bromide] | 36.98 | 0.638 | > 64 | > 64 |  | 
CCCCCCCC[n+]1cccc2ccccc21.[Br-] [Compound 5b, 1-Octylquinolin-1-ium bromide] | 49.24 | 1.21 | 16 | > 64 |  | 
CCCCCCCCCC[n+]1cccc2ccccc21.[Br-] [Compound 5c, 1-Decylquinolin-1-ium bromide] | 61.45 | 1.79 | 16 | 32 |  | 
CCCCCCCCCCCC[n+]1cccc2ccccc21.[Br-] [Compound 5d, 1-Dodecylquinolin-1-ium bromide] | 74.21 | 2.39 | 4 | 16 |  | 
CCCCCCCCCCCCCCCC[n+]1cccc2ccccc21.[Br-] [Compound 5f, 1-Hexadecylquinolin-1-ium bromide] | 101.1 | 3.65 | 4 | 8 |  | 
CCCCCC[N+](CC)(CC)CC.[Br-] [Compound 7a, N,N,N-Triethylhexan-1-aminium bromide] |  |  | > 64 | > 64 |  | 
CCCCCCCC[N+](CC)(CC)CC.[Br-] [Compound 7b, N,N,N-Triethyloctan-1-aminium bromide] |  |  | > 64 | > 64 |  | 
CCCCCCCCCC[N+](CC)(CC)CC.[Br-] [Compound 7c, N,N,N-Triethyldecan-1-aminium bromide] |  |  | 64 | > 64 |  | 
CCCCCCCCCCCC[N+](CC)(CC)CC.[Br-] [Compound 7d, N,N,N-Triethyldodecan-1-aminium bromide] |  |  | 4 | 16 |  | 
CCCCCCCCCCCCCCCC[N+](CC)(CC)CC.[Br-] [Compound 7f, N,N,N-Triethylhexadecan-1-aminium bromide] |  |  | 64 | 64 |  | 
CCCCCCCCCCCCCCCCCC[N+](CC)(CC)CC.[Br-] [Compound 7g, N,N,N-Triethyloctadecan-1-aminium bromide] |  |  | 16 | 16 |  | 
